# Reference: patent US12383536B2, “CRF receptor antagonists and methods of use” (Neurocrine Biosciences, Inc., priority 2019, dated 2025)
# pKi: −log10 of the molar value.
# Biological target: T1, CRF1 receptor (Homo sapiens, UniProt P34998)
# T1 sequence (P34998 24-415): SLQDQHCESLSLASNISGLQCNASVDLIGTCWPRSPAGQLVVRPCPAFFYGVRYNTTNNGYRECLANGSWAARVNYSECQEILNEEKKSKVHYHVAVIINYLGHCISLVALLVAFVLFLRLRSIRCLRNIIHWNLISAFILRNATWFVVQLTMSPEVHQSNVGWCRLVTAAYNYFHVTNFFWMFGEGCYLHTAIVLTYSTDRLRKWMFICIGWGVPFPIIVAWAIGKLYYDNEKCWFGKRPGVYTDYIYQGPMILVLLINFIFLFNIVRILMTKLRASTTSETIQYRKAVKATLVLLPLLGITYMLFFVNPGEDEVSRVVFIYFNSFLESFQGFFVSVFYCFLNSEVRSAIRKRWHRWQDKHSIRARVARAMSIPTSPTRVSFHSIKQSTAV
# Assay: CRF1 receptor antagonist activity: kinetically derived affinity (Ki = k-1/k1), procedures of Fleck et al.
# Assay type: binding
# Settings: kinetically derived affinity calculated from association (k1) and dissociation (k-1) rate constants; read-out: kinetic Ki
# Protocol: As reported in Fleck et al. (J. Pharmacology and Experimental Therapeutics, 341(2):518-531, 2012) (hereinafter “Fleck et al.” and incorporated by reference in it's entirely) the activity of a CRF1 receptor antagonists may be expressed as the kinetically derived affinity (Ki) calculated from the association (k1) and dissociation (k−1) rate constants by the following equation: Ki=k−1/k1
# Compound 1 was evaluated according to these procedures, and the kinetic Ki was determined to be 1.14.
compound,measurement,value
"C#CCN(c1nc(-c2cc(C)c(OC)cc2Cl)c(C)s1)C(CC1CC1)c1ccc(CO)c(F)c1 (racemic) [Compound 1, racemic {4-[1-{[4-(2-chloro-4-methoxy-5-methylphenyl)-5-methyl-1,3-thiazol-2-yl](prop-2-yn-1-yl)amino}-2-cyclopropylethyl]-2-fluorophenyl}methanol]",pKi,8.94
